What was measured:
Test in all cases: relative viability (nuclei count vs DMSO), 5 days (fraction); higher = more cells survive
[1] = compound: NS(=O)(=O)OC[C@@H]1C[C@@H](n2ccc3c(N[C@H]4CCc5ccccc54)ncnc32)C[C@@H]1O [MLN4924] + CS(=O)(=O)N1CCN(Cc2cc3nc(-c4cccc5[nH]ncc45)nc(N4CCOCC4)c3s2)CC1 [Pictilisib] (partner 1 µM)
Outline: (§1)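 Lung cancer cell lines in 1536-well plates were dosed by pin tool the day after seeding, either with one drug alone or with a fixed anchor-drug dose plus five library-drug doses (not always all listed) in √10 steps. After 5 days, cells were fixed and their nuclei stained in one step (final 0.05% Triton X-100, 1% formaldehyde, 1 ug/ml Hoechst), then counted on 4× images. Relative viability is the nuclei count in treated wells divided by that in vehicle wells. Values are medians of duplicate plates.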

[2] = compound: CC[C@H](C)N1C=C(C2=C(C=C(C=C21)C3=CN=C(C=C3)N4CCNCC4)C(=O)NCC5=C(C=C(NC5=O)C)C)C [GSK126] + COc1cccc2cc(-c3nc([C@H]4CC[C@H](C(=O)O)CC4)n4ncnc(N)c34)[nH]c12 [OSI-027] (partner 0.5 µM)
Outline: as §1

[3] = compound: CC[C@H](C)N1C=C(C2=C(C=C(C=C21)C3=CN=C(C=C3)N4CCNCC4)C(=O)NCC5=C(C=C(NC5=O)C)C)C [GSK126] + O=C(c1cc(Cc2n[nH]c(=O)c3ccccc23)ccc1F)N1CCN(C(=O)C2CC2)CC1 [Olaparib] (partner 8 µM)
Outline: as §1

[4] = compound: NS(=O)(=O)OC[C@@H]1C[C@@H](n2ccc3c(N[C@H]4CCc5ccccc54)ncnc32)C[C@@H]1O [MLN4924] + O=C(c1cc(Cc2n[nH]c(=O)c3ccccc23)ccc1F)N1CCN(C(=O)C2CC2)CC1 [Olaparib] (partner 8 µM)
Outline: as §1

Row | Cell Line | relative viability ([1]; first compound 0.04 µM) | relative viability ([1]; first compound 0.1265 µM) | relative viability ([1]; first compound 0.4 µM) | relative viability ([1]; first compound 1.265 µM) | relative viability ([1]; first compound 4 µM) | relative viability ([2]; first compound 0.08 µM) | relative viability ([2]; first compound 0.253 µM) | relative viability ([2]; first compound 0.8 µM) | relative viability ([2]; first compound 2.53 µM) | relative viability ([2]; first compound 8 µM) | relative viability ([3]; first compound 0.08 µM) | relative viability ([3]; first compound 0.253 µM) | relative viability ([3]; first compound 0.8 µM) | relative viability ([3]; first compound 2.53 µM) | relative viability ([3]; first compound 8 µM) | relative viability ([4]; first compound 0.04 µM) | relative viability ([4]; first compound 0.1265 µM) | relative viability ([4]; first compound 0.4 µM) | relative viability ([4]; first compound 1.265 µM) | relative viability ([4]; first compound 4 µM)
1 | NCI-H460 | 0.506 | 0.729 | 0.618 | 0.191 | 0.0906 | 0.843 | 0.615 | 0.622 | 0.718 | 0.656 | 0.434 | 0.397 | 0.388 | 0.326 | 0.29 | 0.395 | 0.372 | 0.427 | 0.0925 | 0.0401
2 | ABC-1 | 0.677 | 0.809 | 0.372 | 0.188 | 0.374 | 0.462 | 0.525 | 0.532 | 0.492 | 0.539 | 0.573 | 0.698 | 0.869 | 0.691 | 0.659 | 0.997 | 0.878 | 0.779 | 0.275 | 0.294
3 | LK-2 | 0.511 | 0.503 | 0.566 | 0.254 | 0.262 | 0.168 | 0.245 | 0.212 | 0.282 | 0.303 | 0.904 | 0.71 | 0.727 | 0.859 | 0.689 | 0.4 | 0.312 | 0.234 | 0.151 | 0.137

From the supplement of paper PMC10307832
